Data from patent US4416885A, “Use of isopropylaminopyrimidine in the chemotherapy of muscular dystrophy, myopathy and myotonia” (priority 1982, dated 1983).

Experiments:
[1] = system: Dystrophic monocytes; assay: Effect on human monocytes in culture (flat cells), dystrophic; format: cell-based; conditions: dystrophic monocyte + dibutryl c-GMP, one individual; untreated dystrophic 36.2%; preliminary
[2] = system: dystrophic 413 muscle explants; assay: Microtubule complexes in muscle explants of injected dystrophic chickens; format: in vivo, chicken; conditions: dystrophic 413 chickens, 28 days of dilantin injections
Source text: Essentially, these experiments were divided into three subgroups, taken from the previous Table:
413A, 413B, 412A, 412B: All were sacrificed after 4 injections and muscle explants placed in culture.
413C, 412C: All were sacrificed after 8 injections and muscle explants were placed in culture.
413D, 412D: All were sacrificed after 10 injections and muscle explants placed in culture.
All explants were placed in CMRL culture medium containing 5% horse serum, 15% fetal bovine serum and 1% antibiotics and allowed to grow for 5-7 days before being fixed and observed for the presence or absence of microtubules. No IAPP was added to the culture medium during the 5-7 days in culture.

[3] = system: dystrophic New Hampshire chickens, line 413; assay: Overall assessment of chemotherapy over all parameters measured; format: in vivo, chicken; conditions: 413 chickens, after 28 days of dilantin injections
Description: The compound IAPP was tested on dystrophic New Hampshire chickens, line 413, and Imperial College (London, England) sub-line of the original Davis, University of California strain. The chickens are homozygous for muscular dystrophy, the disease appearing with 100% incidence.
Chemotherapy was assessed by application of seven different parameters: physical tests of muscular disability, namely the flip test and wing apposition (W.A.) measurements; biochemical assays of serum and muscle enzume levels of creatine phosphokinase (CPK), pyruvate kinase (PK) and acetylcholinesterase (AChE); and histological comparisons of treated and untreated muscle. Toxicity studies (weight loss, etc.) were also used. A very comprehensive profile of the drug was thus obtained which related to all the known, highly characteristic features of the disease which are applicable to both the animal model and the human. […]

SMILES | % Flat Cells [1] | Correction of microtubule defect in explants [2] | Appearance of dystrophic chickens [3]
CCCC(=O)Nc1nc2c(ncn2[C@@H]2O[C@@H]3COP(=O)(O)O[C@H]3[C@H]2OC(=O)CCC)c(=O)[nH]1 [dibutryl c-GMP, reference compound] | 52.0% | – | –
O=C1NC(=O)C(c2ccccc2)(c2ccccc2)N1 [dilantin, reference compound] | – | did not have their microtubule defect corrected | Some dystrophic 413 chickens appeared normal
